From patent US9617170B2, “Water treatment” (Kemira Oyj, priority 2012, dated 2017)
Several values for one entry are separate records, joined by “and”; a condition that tells them apart may be missing. Equal values may be shown once.

Assays:
[1] = system: MS2; conditions: PAA 7-15 mg/l; cited from earlier work
[2] = system: Enterococci; test: Disinfection of spiked wastewater effluent with PFA, UV and PFA+UV: Enterococci count; set-up: species or system Enterococcus faecalis; conditions: for PFA in combination with UV (Qa): UV 15 mWs/cm^2; for PFA in combination with UV (Qa) / PFA alone (QA): interpolated
Procedure: (§1) Since the wastewater effluent might contain less than 100 cfu/ml (10^4 cfu/100 ml) of E. coli and Enterococci these microorganisms were spiked to wastewater so that the numbers of these microorganisms would be at the level of 10^4-10^5 cfu/ml allowing to study better reduction. E. coli ATTC 15597 and Enterococcus faecalis ATCC 29212 were produced in tryptone yeast extract broth as overnight shaker cultures at 37° C. and kept at 4° C. during the experiment. The numbers of E. coli and Enterococci (containing thus both the natural and spiked ones) were enumerated from effluent and effluent after disinfections by using Chromocult agar (Merck) and confirmed by indole production for E. coli and Slanetz-Bartley agar (Labema) for Enterococci incubated at 37° C. for 1 and 2 days, respectively.
(§2) The enumerations of E. coli and Enterococci were done as for fresh wastewater keeping the mixture at 4° C. for less than 5 hours before starting the analysis.
(§3) Only UV-irradiation: The spiked wastewater effluent was mixed and treated in a collimator device (UV intensity of 0.22 mW/cm^2 on surface of the solution) to treat UV-irradiations using UV 15 mWs/cm^2 alone, UV 25 mWs/cm^2 alone and UV 50 mWs/cm^2 alone. The enumerations of E. coli and Enterococci were determined as previously.
(§4) E. coli and Enterococci were analyzed by the spread-plate-technique. E. coli were cultivated on Chromocult agar (Merck, KGaA, Germany) and incubated at 37° C. for 21+3 h (preferring 2 days) and Enterococci on Slanez & Bartley agar (Lab M, IDG plc, Bury, Lancashire, UK) and incubated at 37° C. for 48+3 h. E. coli were confirmed by oxidase. Bacterial numbers were calculated as CFU/ml (CFU=Colony Forming Unit) and reductions were also determined. These bacterial determination methods are describes in ISO-9308-1 (E. coli) and SFS-EN ISO 7899-2 (Enterococci).
(§5) The graphs of Log reduction vs. dose were made and the values below were interpolated from the linear function of the data points.

[3] = Decomposition of 8 spiked micropollutants in secondary waste water by PFA and UV (batch reactor); conditions: total reaction time 15 min
Procedure: The total reaction time was always kept in 15 min and the treatment temperature was between 10-15° C. The concentrations of each micropollutant were analyzed before and after treatment, and the difference was used to calculate the conversion of each compound. Further, a mean value of the conversions (%) of those 8 compounds was calculated to describe the overall efficiency of the treatment.

[4] = system: E. coli; test: Disinfection of spiked wastewater effluent with PFA, UV and PFA+UV: E. coli count; set-up: species or system Escherichia coli; conditions: for PFA in combination with UV (Qa): UV 15 mWs/cm^2; for PFA in combination with UV (Qa) / PFA alone (QA): interpolated
Procedure: as §1, §2, §3, §4, §5

[5] = system: MS2; test: Disinfection of MS2-spiked wastewater effluent with PFA, UV and PFA+UV (plaque count); set-up: species or system RNA coliphages (MS2)
Procedure: Freshly prepared DEX-135® was added to wastewater effluent (500 ml) that was spiked with RNA coliphages (MS2) to contain 38534 PFU/ml MS2 and mixed continuously with a magnetic stirrer.
UV disinfection using collimator device: The test was done with 50 ml of wastewater effluent The waters were taken in to the cylinders and that was spiked with RNA coliphages (MS2) to contain 38534 PFU/ml MS2 and mixed. 10 ml of this water was taken in to the Petri dishes (diameter 6 cm) and exposed to UV using collimated beam (intensity I0 on the surface of water […]) with continue mixing with magnet stirrer. […]
Determination of microorganisms: The microbiological analyses were started within a few minutes after disinfection segment of the experiment. MS2 coliphages were determined on phage TYG-agar by basing on old double-agar-layer-method (Adams, 1959), with Escherichia coli ATCC 15597 and 13706, respectively as host bacteria and overnight incubation at 37° C. After incubation, virus plaques were counted and results calculated as PFU/ml (PFU=Plaque Forming Unit) and reduction percentage were also determined. […]
The synergistic index was calculated by the method presented by F. C. […] Here, the synergistic index was calculated using the following formula: Synergistic index SI=Qa/QA+Qb/QB.
Synergistic index was calculated for 1 log reduction.

[6] = PFA 0.25 mg/l alone, 10 minutes contact

CC(=O)OO [PAA, peracetic acid]
log reduction of MS2 [1]: 1-1.5

O=COO [PFA, performic acid]
PFA in combination with UV (Qa) ([2]; Log reduction 2.5): 0.03 mg/L | PFA alone (QA) ([2]; Log reduction 2.5): 0.47 mg/L | PFA in combination with UV (Qa) ([2]; Log reduction 3): 0.19 mg/L | PFA alone (QA) ([2]; Log reduction 3): 0.56 mg/L | PFA in combination with UV (Qa) ([2]; Log reduction 3.5): 0.35 mg/L | PFA alone (QA) ([2]; Log reduction 3.5): 0.66 mg/L | PFA in combination with UV (Qa) ([2]; Log reduction 4): 0.52 mg/L | PFA alone (QA) ([2]; Log reduction 4): 0.75 mg/L | Log reduction ([2]; PFA 0.25 mg/l + UV 15 mWs/cm^2): 4.53 | Log reduction [2, 6]: 3.08 | average conversion (%) of 8 compounds ([3]; PFA 5 mg/l, UV 0 min): 1.66% | average conversion (%) of 8 compounds ([3]; PFA 5 mg/l, UV 1 min): 15.27% | average conversion (%) of 8 compounds ([3]; PFA 5 mg/l, UV 5 min): 28.53% | average conversion (%) of 8 compounds ([3]; PFA 5 mg/l, UV 15 min): 47.86% | average conversion (%) of 8 compounds ([3]; PFA 12.5 mg/l, UV 0 min): 5.15% | average conversion (%) of 8 compounds ([3]; PFA 12.5 mg/l, UV 1 min): 19.25% | average conversion (%) of 8 compounds ([3]; PFA 12.5 mg/l, UV 5 min): 36.25% | average conversion (%) of 8 compounds ([3]; PFA 12.5 mg/l, UV 15 min): 54.18% | average conversion (%) of 8 compounds ([3]; PFA 25 mg/l, UV 0 min): 8.98% | average conversion (%) of 8 compounds ([3]; PFA 25 mg/l, UV 1 min): 16.64% | average conversion (%) of 8 compounds ([3]; PFA 25 mg/l, UV 5 min): 41.61% | average conversion (%) of 8 compounds ([3]; PFA 25 mg/l, UV 15 min (88 mJ/cm^2)): 66.78% | SI ([4]; Log reduction 1.5, PFA 0.06 mg/l + UV 15 mWs/cm^2): 0.88 | PFA in combination with UV (Qa) ([4]; Log reduction 1.5): 0.06 mg/L | PFA alone (QA) ([4]; Log reduction 1.5): 0.33 mg/L | SI ([4]; Log reduction 2, PFA 0.22 mg/l + UV 15 mWs/cm^2): 1 and 1.02 | PFA in combination with UV (Qa) ([4]; Log reduction 2): 0.22 mg/L | PFA alone (QA) ([4]; Log reduction 2): 0.44 mg/L | Log reduction ([4]; PFA 0.25 mg/l + UV 25 mWs/cm^2): 3.52 | Log reduction [4, 6]: 1.72 | PFA dose for 1 log reduction of MS2 ([5]; PFA alone, effluent wastewater, 90% (1 log) removal): 3.5 mg/l | synergy index (SI) ([5]; UV + PFA, 1 log reduction of MS2): 1
